The record followed here is patent publication US10717733B2, “Haloallylamine indole and azaindole derivative inhibitors of lysyl oxidases and uses thereof” (PHARMAXIS LTD., priority 2016, dated 2020).

What all share (type): biochemical
Experiment [1] addresses Bovine LOX (Bos taurus (Bovine), UniProt P33072). Description: LOX inhibition, peroxidase-coupled Amplex Red amine oxidase assay. As to conditions: 30 min preincubation at 37° C., putrescine substrate. The procedure, abridged: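 Bovine LOX in 1.2 M urea, 50 mM sodium borate pH 8.2 with 1 μM mofegiline and 0.5 mM pargyline; putrescine at twice KM (e.g. 20 mM for LOX) with Amplex Red/HRP. Fluorescence (ex 565/em 590 nm) read kinetically over 30 min at 37–45 °C; IC50 from slopes.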

The target of experiment [2] is Human LOXL2 (Homo sapiens (Human), UniProt Q9Y4K0). Description: LOXL2 inhibition, peroxidase-coupled Amplex Red amine oxidase assay. Particulars: 30 min preincubation at 37° C., putrescine substrate. The procedure, abridged: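 Enzyme in 1.2 M urea, 50 mM sodium borate pH 8.2 with 1 μM mofegiline and 0.5 mM pargyline, preincubated 30 min at 37° C with compound (11-point CRC). Putrescine at twice KM (10 mM for LOXL2) with Amplex Red/HRP; fluorescence (ex 565, em 590) read kinetically 30 min; IC50 from slopes.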

For experiment [3], the target named is human recombinant SSAO/VAP-1 (Homo sapiens (Human), UniProt Q16853). Nature of the experiment: Inhibition of human recombinant SSAO/VAP-1 amine oxidase activity. As to conditions: 30 min preincubation at 37° C., 600 μM benzylamine. The gist of the method: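 Purified SSAO/VAP-1 (residues 34-763, expressed in CHO Lec 8 cells; 0.25 μg/mL) preincubated 30 min at 37° C with compound in 0.1 M sodium phosphate pH 7.4. Reaction mix of 600 μM benzylamine, 120 μM Amplex Red and 1.5 U/mL HRP added; fluorescence (ex 565/em 590 nm) read every 2.5 min for 30 min; IC50 from kinetic slopes over 4-11 point curves.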

The target of experiment [4] is Recombinant human MAO-B (Homo sapiens (Human), UniProt P27338). Nature of the experiment: Inhibition of human recombinant MAO-B. Particulars: benzylamine 100 μM. The procedure, abridged:
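Recombinant human MAO-B used as enzyme source (0.06 mg/mL, stated concentration). Run as for the human SSAO/VAP-1 assay, except benzylamine substrate at 100 μM.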

Where a name gives a salt, the structure may show the parent alone. Some results are limits rather than exact numbers.

By IC50 is commonly meant the concentration that gives 50% inhibition.

Chain of human recombinant SSAO/VAP-1 (Q16853 34-763): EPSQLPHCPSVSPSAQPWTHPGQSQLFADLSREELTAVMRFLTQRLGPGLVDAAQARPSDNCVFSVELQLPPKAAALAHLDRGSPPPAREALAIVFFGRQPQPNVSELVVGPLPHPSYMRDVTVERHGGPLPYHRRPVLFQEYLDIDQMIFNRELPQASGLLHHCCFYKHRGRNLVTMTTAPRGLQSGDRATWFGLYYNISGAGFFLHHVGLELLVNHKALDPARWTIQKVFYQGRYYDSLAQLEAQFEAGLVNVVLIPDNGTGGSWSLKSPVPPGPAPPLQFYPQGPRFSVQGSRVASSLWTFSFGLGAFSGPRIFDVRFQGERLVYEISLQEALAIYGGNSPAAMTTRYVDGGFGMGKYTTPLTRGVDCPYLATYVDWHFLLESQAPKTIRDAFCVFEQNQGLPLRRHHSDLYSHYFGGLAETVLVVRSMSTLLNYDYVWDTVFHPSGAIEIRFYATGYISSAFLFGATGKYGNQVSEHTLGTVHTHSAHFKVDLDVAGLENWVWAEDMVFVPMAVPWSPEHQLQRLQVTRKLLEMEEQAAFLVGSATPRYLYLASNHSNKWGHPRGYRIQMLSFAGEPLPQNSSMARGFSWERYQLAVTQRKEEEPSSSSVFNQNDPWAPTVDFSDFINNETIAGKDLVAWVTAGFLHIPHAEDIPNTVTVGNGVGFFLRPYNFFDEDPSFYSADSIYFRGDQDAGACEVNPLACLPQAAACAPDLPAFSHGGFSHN
Chain of Human LOXL2 (Q9Y4K0 26-774): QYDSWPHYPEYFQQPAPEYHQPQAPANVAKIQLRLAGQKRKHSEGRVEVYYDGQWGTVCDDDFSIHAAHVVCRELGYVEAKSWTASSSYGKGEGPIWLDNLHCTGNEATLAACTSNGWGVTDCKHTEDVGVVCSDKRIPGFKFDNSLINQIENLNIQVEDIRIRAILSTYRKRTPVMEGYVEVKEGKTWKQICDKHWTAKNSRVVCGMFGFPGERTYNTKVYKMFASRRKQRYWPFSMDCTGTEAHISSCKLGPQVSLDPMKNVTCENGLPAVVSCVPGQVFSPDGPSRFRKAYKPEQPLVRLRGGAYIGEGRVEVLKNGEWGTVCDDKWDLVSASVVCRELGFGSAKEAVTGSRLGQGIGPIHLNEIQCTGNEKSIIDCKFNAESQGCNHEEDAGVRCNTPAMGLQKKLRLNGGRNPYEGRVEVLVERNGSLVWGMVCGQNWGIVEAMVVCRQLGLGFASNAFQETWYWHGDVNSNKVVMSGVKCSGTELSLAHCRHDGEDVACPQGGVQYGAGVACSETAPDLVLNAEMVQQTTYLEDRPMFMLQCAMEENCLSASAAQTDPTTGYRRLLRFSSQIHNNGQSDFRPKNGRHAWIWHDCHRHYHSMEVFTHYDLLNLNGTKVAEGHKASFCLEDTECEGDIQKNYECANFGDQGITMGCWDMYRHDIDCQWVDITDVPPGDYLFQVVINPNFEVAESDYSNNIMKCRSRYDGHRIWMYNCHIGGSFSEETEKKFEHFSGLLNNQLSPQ
Chain of Recombinant human MAO-B (P27338 whole entry): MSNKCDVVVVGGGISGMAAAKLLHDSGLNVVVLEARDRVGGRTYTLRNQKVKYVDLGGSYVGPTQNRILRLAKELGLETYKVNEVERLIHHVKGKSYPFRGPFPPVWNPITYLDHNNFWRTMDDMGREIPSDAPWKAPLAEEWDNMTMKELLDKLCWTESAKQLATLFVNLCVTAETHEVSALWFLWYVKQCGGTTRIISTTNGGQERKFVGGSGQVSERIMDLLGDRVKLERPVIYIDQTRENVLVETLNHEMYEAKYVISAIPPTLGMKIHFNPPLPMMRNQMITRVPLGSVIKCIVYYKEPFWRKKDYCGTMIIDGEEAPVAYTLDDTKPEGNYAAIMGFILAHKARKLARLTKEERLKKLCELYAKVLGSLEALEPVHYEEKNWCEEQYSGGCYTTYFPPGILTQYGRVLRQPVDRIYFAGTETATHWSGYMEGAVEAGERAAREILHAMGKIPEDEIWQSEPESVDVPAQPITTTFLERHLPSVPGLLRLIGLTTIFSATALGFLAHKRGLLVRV
Chain of Bovine LOX (P33072 170-418): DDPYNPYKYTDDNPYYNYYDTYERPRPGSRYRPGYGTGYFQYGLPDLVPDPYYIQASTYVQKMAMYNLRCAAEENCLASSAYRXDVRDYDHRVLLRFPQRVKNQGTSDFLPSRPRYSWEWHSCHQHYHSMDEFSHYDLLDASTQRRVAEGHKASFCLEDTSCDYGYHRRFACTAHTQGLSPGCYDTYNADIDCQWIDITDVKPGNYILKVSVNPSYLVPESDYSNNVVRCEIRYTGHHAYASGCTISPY

For `Cc1c(-c2ccncc2)c2cc(S(C)(=O)=O)ccc2n1C/C(F)=C/CN` [Compound 88, (Z)-3-fluoro-4-(2-methyl-5-(methylsulfonyl)-3-(pyridin-4-yl)-1H-indol-1-yl)but-2-en-1-amine], the concentration for half-maximal inhibition (IC50) is > 300 nM in experiment [1], < 300 nM in experiment [2], > 3000 nM in experiment [3] and > 3000 nM in experiment [4].
With `Cc1cc(-c2c(C)n(C/C(F)=C/CN)c3ccc(S(C)(=O)=O)cc23)cc(C)n1` [Compound 89, (Z)-4-(3-(2,6-dimethylpyridin-4-yl)-2-methyl-5-(methylsulfonyl)-1H-indol-1-yl)-3-fluorobut-2-en-1-amine], the IC50 is > 300 nM in experiment [1], < 300 nM in experiment [2], > 3000 nM in experiment [3] and > 3000 nM in experiment [4].
Turning to `Cc1cc(-c2c(C)n(C/C(F)=C/CN)c3ccc(C(=O)N(C)C)cc23)cc(C)n1` [Compound 90, (Z)-1-(4-amino-2-fluorobut-2-en-1-yl)-3-(2,6-dimethylpyridin-4-yl)-N,N,2-trimethyl-1H-indole-5-carboxamide], the IC50 in experiment [1] was > 300 nM; in experiment [2], < 300 nM; in experiment [3], > 3000 nM; in experiment [4] it was > 3000 nM.
On to `Cc1c(-c2ccncc2)c2cc(C(=O)NC(C)(C)C)ccc2n1C/C(F)=C/CN` [Compound 91, (Z)-1-(4-amino-2-fluorobut-2-en-1-yl)-N-(tert-butyl)-2-methyl-3-(pyridin-4-yl)-1H-indole-5-carboxamide], for which the half-inhibitory concentration (IC50) is > 300 nM in experiment [1], < 300 nM in experiment [2], > 3000 nM in experiment [3] and > 3000 nM in experiment [4].
As to `Cc1c(-c2ccc3c(c2)OCO3)c2cc(S(C)(=O)=O)ccc2n1C/C(F)=C/CN` [Compound 92, (Z)-4-(3-(benzo[d][1,3]dioxol-5-yl)-2-methyl-5-(methylsulfonyl)-1H-indol-1-yl)-3-fluorobut-2-en-1-amine], the IC50 in experiment [1] is > 300 nM; in experiment [2], < 300 nM; in experiment [3], > 3000 nM; in experiment [4], > 3000 nM.
As to `Cc1c(-c2ccc(F)cc2)c2cc(S(C)(=O)=O)ccc2n1C/C(F)=C/CN` [Compound 93, (Z)-3-fluoro-4-(3-(4-fluorophenyl)-2-methyl-5-(methylsulfonyl)-1H-indol-1-yl)but-2-en-1-amine], the IC50 in experiment [1] was > 300 nM; in experiment [2] it was < 300 nM; in experiment [3], > 3000 nM; in experiment [4], > 3000 nM.
Take `Cc1cc(-c2c(C)n(C/C(F)=C/CN)c3ccc(S(C)(=O)=O)cc23)ccn1` [Compound 94, (Z)-3-fluoro-4-(2-methyl-3-(2-methylpyridin-4-yl)-5-(methylsulfonyl)-1H-indol-1-yl)but-2-en-l-amine, Dihydrochloride]: the IC50 is > 300 nM in experiment [1], < 300 nM in experiment [2], > 3000 nM in experiment [3] and > 3000 nM in experiment [4].
As to `Cc1c(-c2ccc(F)cc2)c2cc(S(N)(=O)=O)ccc2n1C/C(F)=C/CN` [Compound 95, (Z)-1-(4-amino-2-fluorobut-2-en-1-yl)-3-(4-fluorophenyl)-2-methyl-1H-indole-5-sulfonamide], the half-inhibitory concentration (IC50) was > 300 nM in experiment [1], < 300 nM in experiment [2], > 3000 nM in experiment [3] and > 3000 nM in experiment [4].
As to `CN(C)S(=O)(=O)c1cncc(-c2c(Cl)n(C/C(F)=C/CN)c3ccccc23)c1` [Compound 96, (Z)-5-(1-(4-amino-2-fluorobut-2-en-1-yl)-2-chloro-1H-indol-3-yl)-N,N-dimethylpyridine-3-sulfonamide], the IC50 in experiment [1] is > 300 nM; in experiment [2] it was < 300 nM; in experiment [3], > 3000 nM; in experiment [4], > 3000 nM.
As to `Cc1c(-c2cccc(S(=O)(=O)N(C)C)c2)c2cc(S(C)(=O)=O)ccc2n1C/C(F)=C/CN` [Compound 97, (Z)-3-(1-(4-amino-2-fluorobut-2-en-1-yl)-2-methyl-5-(methylsulfonyl)-1H-indol-3-yl)-N,N-dimethylbenzenesulfonamide], the 50% inhibitory concentration (IC50) was > 300 nM in experiment [1], < 300 nM in experiment [2], > 3000 nM in experiment [3] and > 3000 nM in experiment [4].
